# Results published in paper PMC9763054 (Nature, 2021).
# Biological target: human CB1 (Homo sapiens, UniProt P21554)
# Type: cell-based
# human CB1, sequence (P21554 whole entry): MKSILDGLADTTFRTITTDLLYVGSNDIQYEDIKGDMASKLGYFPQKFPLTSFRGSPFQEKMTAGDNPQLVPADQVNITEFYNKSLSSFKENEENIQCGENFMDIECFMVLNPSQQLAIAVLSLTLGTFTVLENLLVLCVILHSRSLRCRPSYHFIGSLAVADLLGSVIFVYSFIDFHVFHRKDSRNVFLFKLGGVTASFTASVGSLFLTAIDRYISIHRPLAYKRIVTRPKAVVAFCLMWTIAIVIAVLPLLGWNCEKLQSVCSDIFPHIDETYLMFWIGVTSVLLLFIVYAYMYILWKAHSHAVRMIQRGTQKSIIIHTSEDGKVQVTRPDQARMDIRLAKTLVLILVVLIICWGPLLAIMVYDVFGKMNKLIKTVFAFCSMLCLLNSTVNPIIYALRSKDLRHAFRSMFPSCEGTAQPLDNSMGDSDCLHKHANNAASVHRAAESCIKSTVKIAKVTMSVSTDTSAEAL
smiles,measurement,value
CCCCCCC(C)(C)c1ccc([C@@H]2C[C@H](O)CC[C@H]2CCCO)c(O)c1 [CP55940],CB1 potency measured in agonist mode,17 nM
